This note sets out measurements from US12077503B2, “Substituted cyclic amides and their use as herbicides” (FMC CORPORATION, priority 2015, dated 2024).

Holding throughout (format): in vivo
In assay [1] the test system is ducksalad (Heteranthera limosa). Briefly: Test B flooded paddy test. Particulars: Heteranthera limosa, Flood, 250 g ai/ha; scale of 0 to 100 where 0 is no effect and 100 is complete control; read-out: Ducksalad plant response rating. The method, boiled down:
(§1)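 Plants at 2-leaf stage flooded to 3 cm above soil, with compounds applied directly to paddy water and that depth maintained. Plants kept in greenhouse 13–15 d. Visual rating versus controls on a 0 (no effect) to 100 (complete control) scale.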

Assay [2] deals with rice (Oryra sativa). Briefly: Test B flooded paddy test. The settings on record: Oryza sativa, Flood, 250 g ai/ha; scale of 0 to 100 where 0 is no effect and 100 is complete control; read-out: Rice plant response rating. In short, it runs like this:
as §1

Assay [3] has as its system barnyardgrass (Echinochloa crus-galli). The assay is described as follows: Test B flooded paddy test. The settings on record: Echinochloa crus-galli, Flood, 250 g ai/ha; scale of 0 to 100 where 0 is no effect and 100 is complete control; read-out: Barnyardgrass plant response rating. In short, it runs like this: as §1
Assay [4] relates to sedge, umbrella (small-flower umbrella sedge, Cyperus difformis). The assay is described as follows: Test B flooded paddy test. The settings on record: Cyperus difformis, Flood, 250 g ai/ha; scale of 0 to 100 where 0 is no effect and 100 is complete control; read-out: Sedge, Umbrella plant response rating. In short, it runs like this: as §1
Assay [5] has as its system pigweed (Amaranthus retroflexus). Briefly: Test A postemergence. Particulars: Amaranthus retroflexus, post-emergence, 240 h, 125 g ai/ha, postemergence; visual injury after approximately 10 d; 0 to 100 scale (0 no effect, 100 complete control); read-out: Plant response rating, Pigweed. The method, boiled down: (§2)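 Compounds were formulated in a non-phytotoxic solvent mixture with surfactant and applied as a preemergence directed soil spray after seeding, or sprayed postemergence over plants 2 to 10 cm tall at the one- to two-leaf stage. Evaluation after about 10 d compared treated with untreated controls, using a scale from 0 (no effect) to 100 (complete control).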

The test system of assay [6] is barnyardgrass (Echinochloa crus-galli). Briefly: Test A postemergence. Particulars: Echinochloa crus-galli, post-emergence, 240 h, 125 g ai/ha, postemergence; visual injury after approximately 10 d; 0 to 100 scale (0 no effect, 100 complete control); read-out: Plant response rating, Barnyardgrass. In short, it runs like this:
as §2

Assay [7] has as its system Galium (catchweed bedstraw, Galium aparine). The assay is described as follows: Test A postemergence. The settings on record: Galium, post-emergence, 240 h, 125 g ai/ha, postemergence; visual injury after approximately 10 d; 0 to 100 scale (0 no effect, 100 complete control); read-out: Plant response rating, Galium. The method, boiled down:
as §2

In assay [8] the test system is wheat (Triticum aestivum). The assay is described as follows: Test A postemergence. Particulars: Triticum aestivum, post-emergence, 240 h, 125 g ai/ha, postemergence; visual injury after approximately 10 d; 0 to 100 scale (0 no effect, 100 complete control); read-out: Plant response rating, Wheat. The method, boiled down:
as §2

For assay [9], the system named is Kochia (Kochia scoparia). The assay is described as follows: Test A postemergence. The settings on record: Bassia scoparia, post-emergence, 240 h, 125 g ai/ha, postemergence; visual injury after approximately 10 d; 0 to 100 scale (0 no effect, 100 complete control); read-out: Plant response rating, Kochia. In short, it runs like this: as §2
For assay [10], the system named is ryegrass, Italian (Italian ryegrass, Lolium multiflorum). Briefly: Test A postemergence. Particulars: Lolium multiflorum, post-emergence, 240 h, 125 g ai/ha, postemergence; visual injury after approximately 10 d; 0 to 100 scale (0 no effect, 100 complete control); read-out: Plant response rating, Ryegrass, Italian. In short, it runs like this: as §2
Assay [11] deals with corn (Zea mays). The assay is described as follows: Test A postemergence. The settings on record: Zea mays, post-emergence, 240 h, 125 g ai/ha, postemergence; visual injury after approximately 10 d; 0 to 100 scale (0 no effect, 100 complete control). In short, it runs like this: as §2
For assay [12], the system named is ragweed (common ragweed, Ambrosia elatior). The assay is described as follows: Test A postemergence. The settings on record: Ambrosia artemisiifolia, post-emergence, 240 h, 125 g ai/ha, postemergence; visual injury after approximately 10 d; 0 to 100 scale (0 no effect, 100 complete control); read-out: Plant response rating, Ragweed. In short, it runs like this:
as §2

For assay [13], the system named is blackgrass (Alopecurus myosuroides). The assay is described as follows: Test A postemergence. The settings on record: Alopecurus myosuroides, post-emergence, 240 h, 125 g ai/ha, postemergence; visual injury after approximately 10 d; 0 to 100 scale (0 no effect, 100 complete control); read-out: Plant response rating, Blackgrass. The method, boiled down: as §2
Assay [14] concerns giant foxtail (Setaria faberii). The assay is described as follows: Test A postemergence. Particulars: Setaria faberi, post-emergence, 240 h, 125 g ai/ha, postemergence; visual injury after approximately 10 d; 0 to 100 scale (0 no effect, 100 complete control); read-out: Plant response rating, Foxtail, Giant. The method, boiled down: as §2

Structures are written as SMILES.

As to `O=C1NC[C@H](c2ccc(C3CC3)cc2)[C@H]1C(=O)Nc1ccccc1F` [Compound 727], the pest or weed control at 250 g/ha in [1] turned out to be 75%; in assay [2], 25%; in assay [3], 0%; in assay [4], 0%. Moreover, the pest or weed control at 125 g/ha in assay [5] was 0%; in assay [6], 80%; in assay [7], 0%; in assay [9] it was 0%; in assay [10], 0%; in [12], 0%. Moreover, the figures for the pest or weed control at 125 g/ha in assay [13] and in assay [14] were 30% and 40%, respectively. In addition, the plant injury at 125 g/ha in [8] came out at 0%. The same molecule gave a Corn plant response rating (crop injury, 0 = no effect, 100 = complete kill) at 125 g/ha in assay [11] of 0%.
As for `Cc1ccc([C@H]2CN(C)C(=O)[C@@H]2C(=O)Nc2cccc(F)c2F)c(F)c1` [Compound 730], the pest or weed control at 250 g/ha was determined as 95% in assay [1], 0% in assay [2], 75% in [3] and 0% in assay [4]. For the same molecule, the pest or weed control at 125 g/ha stood at 20% in assay [5]; 100% in assay [6]; 50% in assay [7]; 70% in assay [9]; 40% in [10]; 20% in assay [12]. Also, the pest or weed control at 125 g/ha in assay [13] was 50%; in assay [14], 90%. Besides, the plant injury at 125 g/ha in assay [8] turned out to be 30%. This molecule had a Corn plant response rating (crop injury, 0 = no effect, 100 = complete kill) at 125 g/ha in [11] of 20%.
`Cc1ccc([C@H]2CN(C)C(=O)[C@@H]2C(=O)Nc2ccccc2S(C)(=O)=O)cc1C` [Compound 734]: the pest or weed control at 250 g/ha in [1] amounted to 100%; in assay [2] it was 0%; in assay [3] it was 60%; in [4], 0%. For the same molecule, the pest or weed control at 125 g/ha in assay [5] was 0%; in assay [6] it was 90%; in assay [7] it was 30%; in assay [9], 0%; in assay [10], 20%; in assay [12], 10%. Besides, the pest or weed control at 125 g/ha turned out to be 20% in assay [13] and 90% in [14]. Moreover, the plant injury at 125 g/ha in assay [8] stood at 50%. In assay [11], this molecule yielded a Corn plant response rating (crop injury, 0 = no effect, 100 = complete kill) at 125 g/ha of 40%.
Regarding `CCc1cc(CC)cc([C@H]2CN(C)C(=O)[C@@H]2C(=O)Nc2ccccc2F)c1` [Compound 735], the pest or weed control at 250 g/ha stood at 40% in assay [1], 0% in assay [2], 60% in [3] and 0% in assay [4]. Also, the pest or weed control at 125 g/ha in [5] was 20%; in [6] it was 90%; in assay [7], 40%; in assay [9], 30%; in assay [10] it was 60%; in [12] it was 0%. The pest or weed control at 125 g/ha in [13] stood at 50%; in assay [14], 90%. Moreover, the plant injury at 125 g/ha in assay [8] is 50%. For the same molecule, the Corn plant response rating (crop injury, 0 = no effect, 100 = complete kill) at 125 g/ha in assay [11] was 80%.
In the case of `CCc1cc(CC)cc([C@H]2CN(C)C(=O)[C@@H]2C(=O)Nc2cccc(F)c2F)c1` [Compound 736], the pest or weed control at 250 g/ha in assay [1] stood at 40%; in assay [2] it was 0%; in [3] it was 40%; in assay [4] it was 0%. In addition, the pest or weed control at 125 g/ha came to 20% in assay [5]; 90% in [6]; 50% in assay [7]; 20% in assay [9]; 80% in assay [10]; 0% in assay [12]. In addition, the pest or weed control at 125 g/ha in [13] came to 60%; in assay [14] it was 90%. Moreover, the plant injury at 125 g/ha in [8] is 50%. In assay [11], this molecule had a Corn plant response rating (crop injury, 0 = no effect, 100 = complete kill) at 125 g/ha of 90%.
Turning to `CN1C[C@H](c2ccc(F)c(OC(F)(F)C(F)F)c2)[C@@H](C(=O)Nc2ccccc2F)C1=O` [Compound 740], the pest or weed control at 250 g/ha turned out to be 100% in [1], 50% in assay [2], 60% in assay [3] and 0% in assay [4]. In addition, the pest or weed control at 125 g/ha came to 40% in [5]; 90% in assay [6]; 50% in assay [7]; 40% in assay [9]; 50% in assay [10]; 0% in assay [12]. For the same molecule, the pest or weed control at 125 g/ha worked out at 30% in assay [13] and 90% in assay [14]. Also, the plant injury at 125 g/ha in assay [8] was 50%. This molecule also gave a Corn plant response rating (crop injury, 0 = no effect, 100 = complete kill) at 125 g/ha in assay [11] of 70%.
Regarding `CN1C[C@H](c2cccc(C(F)(F)F)c2)[C@@H](C(=O)Nc2ccccc2C2CC2)C1=O` [Compound 749], the pest or weed control at 250 g/ha in [1] was 20%; in [2] it was 0%; in assay [3] it was 0%; in assay [4] it was 0%. The pest or weed control at 125 g/ha in assay [5], in assay [6], in assay [7], in assay [9], in assay [10] and in [12] was 0% each time. Further, the pest or weed control at 125 g/ha in [13] and in assay [14] was 0% each time. The plant injury at 125 g/ha in assay [8] is 0%. In assay [11], this molecule had a Corn plant response rating (crop injury, 0 = no effect, 100 = complete kill) at 125 g/ha of 0%.
For the molecule `O=C1NC[C@H](c2csc3ccccc23)[C@H]1C(=O)Nc1ccccc1F` [Compound 750], the pest or weed control at 250 g/ha in [1] was found to be 90%; in [2], 0%; in assay [3], 0%; in [4] it was 0%. Besides, the pest or weed control at 125 g/ha in [5] was found to be 0%; in assay [6], 70%; in [7], 0%; in [9] it was 0%; in assay [10], 0%; in assay [12], 0%. For the same molecule, the pest or weed control at 125 g/ha was determined as 0% in [13] and 20% in [14]. Also, in assay [8], the plant injury at 125 g/ha amounted to 0%. This molecule also displayed a Corn plant response rating (crop injury, 0 = no effect, 100 = complete kill) at 125 g/ha in [11] of 0%.
